Data on four molecules can be found in ChEMBL document CHEMBL4043116, “KBE009: An antimalarial bestatin-like inhibitor of the Plasmodium falciparum M1 aminopeptidase discovered in an Ugi multicomponent reaction-derived peptidomimetic library” (Bioorg Med Chem, 2017).

Broadly, the IC50 is the concentration that inhibits the measured activity by half. The term Ki denotes the dissociation constant of the complex between target and ligand, obtained from inhibition or displacement. By inhibition is commonly meant the drop in the measured response relative to a control, in per cent.

Activity calls are given as the source filed them. Unless noted, no cut-off for these calls is given here.

Series [1] relates to Plasmodium falciparum. In words: Antimalarial activity against synchronized ring stage of […] Plasmodium falciparum 3D7 infected in human erythrocytes assessed as parasite growth at 1 uM after 72 hrs by YOYO-1 staining based flow cytometric analysis relative to control. It counts as functional. On the technique in general: A flow cytometer gives signals particle by particle.

Series [2] concerns Plasmodium falciparum. The experiment in a line: Inhibition of recombinant Plasmodium falciparum M1 aminopeptidase assessed as residual activity at 20 uM using Ala-AMC as substrate pretreated for 30 mins followed by substrate addition by fluorescence assay relative to control.
In series [3] the test system is Plasmodium falciparum. In words: Antimalarial activity against synchronized ring stage of […] Plasmodium falciparum 3D7 infected in human erythrocytes after 48 hrs by Giemsa staining based microscopic analysis. The class given is functional, cell-based. Conditions: 3D7, 48 h.
In series [4] the test system is Plasmodium falciparum. In words: Antimalarial activity against asynchronized chloroquine-resistant Plasmodium falciparum FcB1/Columbia assessed as reduction in [3H]-hypoxanthine incorporation pretreated for 24 hrs followed by [3H]-hypoxanthine addition after 24 hrs by microbeta scintillation counting analysis. The class given is functional.
Series [5] can be described thus: Inhibition of recombinant Plasmodium falciparum M1 aminopeptidase using Ala-AMC as substrate pretreated for 30 mins followed by substrate addition by fluorescence assay.
For series [6], the system named is Plasmodium falciparum. In words: Inhibition of Plasmodium falciparum M1 aminopeptidase at 20 uM using Arg-AMC as substrate measured after 5 mins by fluorescence assay relative to control.
Series [7] is described as follows: Inhibition of Plasmodium falciparum M1 aminopeptidase using Ala-AMC as substrate by spectrofluorimetric assay.
Series [8] relates to Plasmodium falciparum. In words: Antimalarial activity against synchronized ring stage of […] Plasmodium falciparum 3D7 infected in human erythrocytes assessed as parasite growth at 25 uM after 72 hrs by YOYO-1 staining based flow cytometric analysis relative to control. It counts as functional.
A further series deals with Erythrocyte. In words: Hemolytic activity against human erythrocytes at 25 uM measured after 48 hrs. It counts as ADME, cell-based.
For series [9], the system named is Plasmodium falciparum. In words: Antimalarial activity against synchronized ring stage of […] Plasmodium falciparum 3D7 infected in human erythrocytes assessed as parasite growth at 25 uM after 48 hrs by Giemsa staining based microscopic analysis. The class given is functional, cell-based.
Series [10] relates to Plasmodium falciparum. In words: Antimalarial activity against asynchronized chloroquine-resistant Plasmodium falciparum FcB1/Columbia assessed as reduction in [3H]-hypoxanthine incorporation by measuring parasite growth at 5 uM pretreated for 24 hrs followed by [3H]-hypoxanthine addition after 24 hrs by microbeta scintillation counting analysis relative to control. It counts as functional. Set-up: scale not given: the % may be the effect or the level left.

In series [11] the test system is Plasmodium falciparum. The experiment in a line: Antimalarial activity against asynchronized chloroquine-resistant Plasmodium falciparum FcB1/Columbia assessed as reduction in [3H]-hypoxanthine incorporation by measuring parasite growth at 50 uM pretreated for 24 hrs followed by [3H]-hypoxanthine addition after 24 hrs by microbeta scintillation counting analysis relative to control. It counts as functional. Set-up: scale not given: the % may be the effect or the level left.

Series [12] has as its system Plasmodium falciparum. The experiment in a line: Inhibition of Plasmodium falciparum M1 aminopeptidase at 200 uM using Ala-AMC as substrate by spectrofluorimetric assay.
The nature of series [13]: Selectivity index, ratio of Ki for recombinant Plasmodium falciparum M1 aminopeptidase to Ki for porcine kidney cortex aminopeptidase N.
In series [14] the target is T1, Aminopeptidase N (Sus scrofa) (UniProt P15145).
T1 sequence (whole entry): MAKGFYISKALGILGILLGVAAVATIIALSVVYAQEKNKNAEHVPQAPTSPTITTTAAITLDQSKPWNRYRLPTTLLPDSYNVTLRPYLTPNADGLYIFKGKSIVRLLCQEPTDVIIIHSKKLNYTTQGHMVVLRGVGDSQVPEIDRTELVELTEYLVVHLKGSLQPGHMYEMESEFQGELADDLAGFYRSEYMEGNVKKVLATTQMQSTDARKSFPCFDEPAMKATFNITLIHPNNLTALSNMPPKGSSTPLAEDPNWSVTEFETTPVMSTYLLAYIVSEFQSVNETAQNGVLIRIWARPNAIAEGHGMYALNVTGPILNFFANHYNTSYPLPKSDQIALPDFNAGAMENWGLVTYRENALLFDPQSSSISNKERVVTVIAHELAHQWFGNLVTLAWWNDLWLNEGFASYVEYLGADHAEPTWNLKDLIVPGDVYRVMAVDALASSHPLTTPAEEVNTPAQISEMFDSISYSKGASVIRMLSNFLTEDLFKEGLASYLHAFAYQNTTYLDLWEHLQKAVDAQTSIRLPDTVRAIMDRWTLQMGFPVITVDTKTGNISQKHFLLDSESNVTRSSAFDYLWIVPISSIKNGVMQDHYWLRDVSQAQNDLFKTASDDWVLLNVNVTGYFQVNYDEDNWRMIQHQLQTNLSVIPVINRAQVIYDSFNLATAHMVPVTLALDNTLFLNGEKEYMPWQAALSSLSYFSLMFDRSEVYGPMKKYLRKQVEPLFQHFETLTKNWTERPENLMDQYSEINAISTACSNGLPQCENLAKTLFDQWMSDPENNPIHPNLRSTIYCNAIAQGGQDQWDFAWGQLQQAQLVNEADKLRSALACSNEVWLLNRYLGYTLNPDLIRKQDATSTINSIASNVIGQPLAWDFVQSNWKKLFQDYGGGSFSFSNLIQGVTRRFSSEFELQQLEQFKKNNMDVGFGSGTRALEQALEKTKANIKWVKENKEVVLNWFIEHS
In words: Inhibition of porcine kidney cortex aminopeptidase N up to 100 uM using Leu-p-nitroanilide as substrate […].

For another series, the system named is HUVEC. In words: Cytotoxicity against HUVEC assessed as reduction in cell viability up to 200 uM by MTT assay. The class given is cell-based. As to conditions: human. A general note: Tetrazolium dyes change colour on reduction, which living cells bring about.

For the molecule `CCN(CC)CCCC(C)Nc1ccnc2cc(Cl)ccc12` (centres undefined) [CHLOROQUINE], the Activity in the series on Plasmodium falciparum [1] is 25.9%.

On to `CC(C)C[C@H](NC(=O)[C@@H](O)[C@H](N)Cc1ccccc1)C(=O)O` [UBENIMEX], for which the figures for the Activity with Plasmodium falciparum [2], with Plasmodium falciparum [8] and with Erythrocyte were 1.2%, 36% and “Non-Toxic”, respectively. For the same molecule, the IC50 in the series with Plasmodium falciparum [3] was 21 µM; in the series with Plasmodium falciparum [4], 3.3 µM; in series [7], under 0.31 µM. Further, the Ki in [5] is under 0.16 µM. The molecule further yielded an inhibition in the series on Plasmodium falciparum [6] of 50%.

For the molecule `CC(C)C[C@@H](C(=O)O)N(C(=O)[C@@H](N)Cc1ccccc1)C(C(=O)NC(C)(C)C)c1ccccc1` (some centres undefined), the Activity in the series with Plasmodium falciparum [2] was 69%; with Plasmodium falciparum [10] it was 49 - 100%; in the series on Plasmodium falciparum [8], 30%; with Plasmodium falciparum [11] it was 2 - 2.5%; in the series on Erythrocyte it was “Non-Toxic”. In the series on Plasmodium falciparum [9], the outcome was Active. Also, the inhibition entry with Plasmodium falciparum [12] was “inactive”.

As for `CC(C)C[C@@H](C(=O)O)N(C(=O)[C@@H](N)Cc1ccccc1)C(C(=O)NCc1ccccc1)c1ccco1` (some centres undefined), the Activity in the series with Plasmodium falciparum [2] was 48%; with Plasmodium falciparum [10], 83.5 - 93.5%; in the series with Plasmodium falciparum [8], 54%; in the series on Plasmodium falciparum [11], 2.5 - 4.5%; in the series with Erythrocyte, “Non-Toxic”; with HUVEC, “Non-Toxic”. For the same molecule, the figures for the IC50 (in the series on Plasmodium falciparum [3]; in the series on Plasmodium falciparum [4]; in series [7]) were 18 µM, 16 µM and 82 µM, respectively. Also, in the series on Plasmodium falciparum [9], the outcome was Active. The Ki in [5] amounted to 0.4 µM. In addition, in series [13], the Ratio Ki was over 250. Moreover, the inhibition entry in [14] was “inactive”.
